Source: ChEMBL document CHEMBL2034917, “Multifunctional mercapto-tacrine derivatives for treatment of age-related neurodegenerative diseases” (J Med Chem, 2012)
The source made the active and inactive calls. The calls are words filed in the database; no cut-off is given here.

Assays:
SH-SY5Y [1] = test: Neuroprotective activity in human SH-SY5Y cells assessed as protection against H2O2-induced oxidative stress incubated for 1 hr prior to H2O2-challenge measured after 12 hrs by MTT assay; assay type: functional, cell-based
SH-SY5Y [2] = test: Neuroprotective activity in human SH-SY5Y cells assessed as protection against H2O2-induced oxidative stress at 3 uM incubated for 1 hr prior to H2O2-challenge measured after 12 hrs by MTT assay; assay type: functional
SH-SY5Y [3] = test: Neuroprotective activity in human SH-SY5Y cells assessed as protection against H2O2-induced oxidative stress at 1 uM incubated for 1 hr prior to H2O2-challenge measured after 12 hrs by MTT assay; assay type: functional
SH-SY5Y [4] = test: Neuroprotective activity in human SH-SY5Y cells assessed as protection against H2O2-induced oxidative stress at 10 uM incubated for 1 hr prior to H2O2-challenge measured after 12 hrs by MTT assay; assay type: functional
Acetylcholinesterase = Acetylcholinesterase (Electrophorus electricus, UniProt O42275); test: Inhibition of electric eel acetylcholine esterase using […] as substrate incubated for 5 mins prior to substrate addition measured every 3 mins by Ellman's assay
Chain of Acetylcholinesterase (O42275 whole entry): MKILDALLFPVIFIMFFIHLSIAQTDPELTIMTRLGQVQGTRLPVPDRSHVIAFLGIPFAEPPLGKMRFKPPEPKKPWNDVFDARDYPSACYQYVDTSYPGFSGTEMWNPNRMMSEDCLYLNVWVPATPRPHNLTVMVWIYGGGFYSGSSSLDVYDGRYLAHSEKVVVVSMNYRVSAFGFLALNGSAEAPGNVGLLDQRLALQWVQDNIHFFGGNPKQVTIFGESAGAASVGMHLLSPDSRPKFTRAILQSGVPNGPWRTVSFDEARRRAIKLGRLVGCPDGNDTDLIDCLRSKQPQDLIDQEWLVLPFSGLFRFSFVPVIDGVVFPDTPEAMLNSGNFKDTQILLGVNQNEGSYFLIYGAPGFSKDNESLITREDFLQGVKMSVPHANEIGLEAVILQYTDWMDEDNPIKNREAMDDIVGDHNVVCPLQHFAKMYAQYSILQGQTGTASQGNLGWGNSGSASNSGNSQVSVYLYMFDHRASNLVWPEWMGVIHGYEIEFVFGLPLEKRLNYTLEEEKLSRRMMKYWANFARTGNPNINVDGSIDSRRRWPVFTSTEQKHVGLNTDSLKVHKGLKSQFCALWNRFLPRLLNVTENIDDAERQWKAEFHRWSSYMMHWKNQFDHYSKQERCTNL

Cholinesterase = Cholinesterase (Equus caballus, UniProt P81908)
Chain of Cholinesterase (P81908 whole entry): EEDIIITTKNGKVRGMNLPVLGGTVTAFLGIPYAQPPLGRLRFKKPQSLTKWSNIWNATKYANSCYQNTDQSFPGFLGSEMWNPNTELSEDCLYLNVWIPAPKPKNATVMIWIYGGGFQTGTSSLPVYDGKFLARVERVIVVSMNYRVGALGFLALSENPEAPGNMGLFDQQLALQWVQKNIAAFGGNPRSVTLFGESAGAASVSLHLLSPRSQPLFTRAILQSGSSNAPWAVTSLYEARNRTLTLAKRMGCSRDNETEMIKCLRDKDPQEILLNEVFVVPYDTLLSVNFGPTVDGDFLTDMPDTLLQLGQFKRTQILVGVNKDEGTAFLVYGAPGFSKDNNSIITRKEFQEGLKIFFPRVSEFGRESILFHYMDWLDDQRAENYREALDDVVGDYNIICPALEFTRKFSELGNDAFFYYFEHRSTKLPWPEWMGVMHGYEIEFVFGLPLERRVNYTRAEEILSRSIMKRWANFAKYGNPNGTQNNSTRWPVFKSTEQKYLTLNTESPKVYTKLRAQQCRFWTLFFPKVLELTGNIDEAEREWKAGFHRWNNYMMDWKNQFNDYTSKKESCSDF
Description: Inhibition of equine serum butyrylcholine esterase using butyrylcholine chloride as substrate incubated for 5 mins prior to substrate addition measured every 3 mins by Ellman's assay

SH-SY5Y [5] = test: Neuroprotective activity in human SH-SY5Y cells assessed as protection against H2O2-induced oxidative stress at 30 uM incubated for 1 hr prior to H2O2-challenge measured after 12 hrs by MTT assay; assay type: functional
Rattus norvegicus [6] = test: Hepatotoxicity in Sprague-Dawley rat assessed increase in alanine aminotransferase level in serum at 6 umol/100g of body weight, ip up to 120 hrs; assay type: toxicity, organism-based; conditions: in vivo
Rattus norvegicus [7] = test: Hepatotoxicity in Sprague-Dawley rat assessed increase in aminotransferase level in serum at 6 umol/100g of body weight, ip up to 120 hrs; assay type: toxicity, organism-based; conditions: in vivo
Hippocampus [8] = test: (§1) Neuroprotective activity in Sprague-Dawley rat hippocampal CA1 region assessed as enhancement of high frequency stimulation-induced long-term potentiation by measuring field excitatory postsynaptic potentials incubated for 5 mins prior to HFS-induction measured after 10 mins by electrophysiology assay (reference value: […] +/- 5.3%); assay type: functional
Hippocampus [9] = test: as §1, with “potentials at 50 uM” for “potentials”, “133.7” for “136.3”, “3.6%)” for “5.3%)”; assay type: functional
Hippocampus [10] = test: as §1, with “potentials at 50 uM” for “potentials”, “134.3” for “136.3”, “3.9%)” for “5.3%)”; assay type: functional
Rattus norvegicus [11] = test: Neuroprotective activity in Sprague-Dawley rat assessed as enhancement of high frequency stimulation-induced long-term potentiation in hippocampus at 50 uM, icv after 3 hrs (reference value: 126 +/- 3.6%); assay type: functional
[12] = target: Acetylcholinesterase (Electrophorus electricus) (UniProt O42275); test: Time dependent inhibition of electric eel acetylcholine esterase using […] as substrate incubated for 5 mins prior to substrate addition measured for 2 to 40 mins by Ellman's assay
Chain of Acetylcholinesterase (Electrophorus electricus) (O42275 24-633 limits assumed): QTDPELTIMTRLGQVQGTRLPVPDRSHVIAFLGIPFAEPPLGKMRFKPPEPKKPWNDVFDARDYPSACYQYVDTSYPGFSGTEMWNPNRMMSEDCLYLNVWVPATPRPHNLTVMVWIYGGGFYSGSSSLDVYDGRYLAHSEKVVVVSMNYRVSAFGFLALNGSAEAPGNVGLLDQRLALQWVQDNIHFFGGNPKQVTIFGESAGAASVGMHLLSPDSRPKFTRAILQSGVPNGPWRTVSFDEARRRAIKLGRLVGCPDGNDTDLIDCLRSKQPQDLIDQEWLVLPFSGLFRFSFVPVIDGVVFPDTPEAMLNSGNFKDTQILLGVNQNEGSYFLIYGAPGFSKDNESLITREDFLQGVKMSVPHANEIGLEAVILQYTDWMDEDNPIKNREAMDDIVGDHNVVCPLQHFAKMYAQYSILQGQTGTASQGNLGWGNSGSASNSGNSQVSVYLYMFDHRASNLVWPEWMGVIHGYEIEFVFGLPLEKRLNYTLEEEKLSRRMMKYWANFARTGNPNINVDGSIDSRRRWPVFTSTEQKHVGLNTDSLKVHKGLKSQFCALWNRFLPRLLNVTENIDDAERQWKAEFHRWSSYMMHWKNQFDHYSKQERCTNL

[13] = target: Acetylcholinesterase (Electrophorus electricus) (UniProt O42275); test: Mixed type inhibition of electric eel acetylcholine esterase using […] as substrate by Lineweaver-Burk reciprocal plot analysis

| SMILES | Activity (SH-SY5Y [1]) | Activity (SH-SY5Y [2]) [%] | Activity (SH-SY5Y [3]) [%] | Activity (SH-SY5Y [4]) [%] | IC50 (Acetylcholinesterase) [nM] | IC50 (Cholinesterase) [nM] | Activity (SH-SY5Y [5]) [%] | Activity (Rattus norvegicus [6]) | Activity (Rattus norvegicus [7]) | Activity (Hippocampus [8]) [%] | Activity (Hippocampus [9]) [%] | Activity (Hippocampus [10]) [%] | Activity (Rattus norvegicus [11]) [%] | inhibition [12] | inhibition [13] |
| --- | --- | --- | --- | --- | --- | --- | --- | --- | --- | --- | --- | --- | --- | --- | --- |
| CC(=O)SCCC(=O)NCCCCNc1c2c(nc3ccccc13)CCCC2 | Dose-dependent effect | 30.1 | 21.7 | 43.6 | 7240 | 155 | 56.5 | – | – | – | – | – | – | – | – |
| CC(=O)SCCC(=O)NCCCNc1c2c(nc3ccccc13)CCCC2 | Dose-dependent effect | 35.9 | 32.4 | 38.2 | 1740 | 229 | 50.6 | Non-toxic | Non-toxic | 136.2 | – | – | – | – | – |
| O=C(CCS)NCCCCNc1c2c(nc3ccccc13)CCCC2 | – | 5.8 | 23.8 | 21.5 | 8320 | 129 | 38.2 | – | – | – | – | – | – | – | – |
| O=C(CCS)NCCCNc1c2c(nc3ccccc13)CCCC2 | – | 22 | 45.9 | 16.7 | 6030 | 182 | 34 | Non-toxic | Non-toxic | – | 160.8 | – | – | – | – |
| O=C(CCS)NCCCCCCNc1c2c(nc3cc(Cl)ccc13)CCCC2 | – | 27.2 | 52.3 | 24.5 | 178 | 178 | 37.8 | – | – | – | – | 157.1 | 149 | – | – |
| CC(=O)SCCC(=O)NCCCCCCNc1c2c(nc3cc(Cl)ccc13)CCCC2 | Dose-dependent effect | 17.1 | 8.1 | 28.5 | 42.7 | 91.2 | 34 | – | – | – | – | – | – | inactive | Active |
| Cc1c(C)c2c(c(C)c1O)CCC(C)(C(=O)O)O2 (stereo unspecified) [TROLOX] | – | – | – | 44.2 | – | – | 59.1 | – | – | – | – | – | – | – | – |
